Experiments:
[1] = test system: animal behavior simulating symptoms of depression; details: high doses of pramipexole; cited from earlier work
[2] = test system: patients with a DSM-III-R diagnosis of major depression; details: pramipexole 5.0 mg group, cited from earlier work
subjects = details: in vivo
Protocol: The study was a single center, single-blind study.
Once a subject had reached his/her first intolerable dose (FID-1), upward dose escalation was discontinued.
All other provisions of the protocol remained unchanged. Assessments were the same as those planned for the dose escalation day.
On each study day, subjects were followed up for up to 8 hours following drug administration for AEs, vital signs, ECGs. In addition, a laboratory panel was taken at screening and at the end of the study.

PD patients = details: 0.125 to 1.0 mg three times per day; 12 weeks; 296 PD patients; p=0.01 vs placebo; cited from earlier work

For CCCN[C@H]1CCc2nc(N)sc2C1 [Pramipexole, (S)-6-propylamino-4,5,6,7-tetrahydro-1,3-benzothiazole-2-amine], the “activity in tests of animal behavior simulating symptoms of depression” value [1] is listed as “active”, the “patients who completed the study” value ([2]; 8 weeks of treatment) is listed as 42.4% and the “improvement at week 8” value ([2]; change from baseline, no p value because of high drop-out rate) is listed as −15.00. For the same compound, the patients reported nausea [2] was 76%, the patients reported vomiting [2] was 39% and the “patients discontinued treatment prematurely” value ([2]; mainly because of adverse events) was 57.6%. The dose limiting toxicity (subjects) was “gastro-intestinal adverse events” and the “BDI scores decreased by an adjusted” value (PD patients) was 5.9 (SE 0.5).
